Assay results reported in ChEMBL document CHEMBL5154747, “Discovery of new carbonic anhydrase IX inhibitors as anticancer agents by toning the hydrophobic and hydrophilic rims of the active site to encounter the dual-tail approach” (Eur J Med Chem, 2022).
Active and inactive are the calls of the source. The rule behind the calls is not given here.

Tests used:
RXF 393 = assay: Cytotoxicity against human RXF 393 cells assessed as inhibition of cell viability incubated for 72 hrs under hypoxia condition by MTT assay; assay type: functional, cell-based; settings: RXF 393, 72 h
[1] = Cytotoxicity against human HEK293 cells assessed as inhibition of cell viability by MTT assay
SK-MEL-5 [2] = assay: Induction of apoptosis in human SK-MEL-5 cells assessed as caspase 9 activation incubated for 24 hrs by Western blotting analysis; assay type: functional, cell-based
HCC 2998 = assay: Cytotoxicity against human HCC 2998 cells assessed as inhibition of cell viability incubated for 72 hrs under hypoxia condition by MTT assay; assay type: functional, cell-based; settings: HCC 2998, 72 h
SK-MEL-5 [3] = assay: Induction of apoptosis in human SK-MEL-5 cells assessed as late apoptotic cells at 10 uM incubated for 24 hrs by Annexin-V/FITC and PI staining based flow cytometry analysis (reference value: 0.26 %); assay type: functional
SK-MEL-5 [4] = assay: Cytotoxicity against human SK-MEL-5 cells assessed as inhibition of cell viability incubated for 72 hrs under hypoxia condition by MTT assay; assay type: functional, cell-based; settings: SK-MEL-5, 72 h
SK-MEL-5 [5] = assay: Induction of cell cycle arrest in human SK-MEL-5 cells assessed as accumulation of diploid cells at G2/M phase at 10 uM incubated for 24 hrs by FACSCalibur flow cytometry analysis (reference value: 13.22%); assay type: functional
SK-MEL-5 [6] = assay: Induction of cell cycle arrest in human SK-MEL-5 cells assessed as accumulation at pre G1 phase at 10 uM incubated for 24 hrs by FACSCalibur flow cytometry analysis (reference value: 2.43%); assay type: functional
SK-MEL-5 [7] = assay: Induction of apoptosis in human SK-MEL-5 cells assessed as early apoptotic cells at 10 uM incubated for 24 hrs by Annexin-V/FITC and PI staining based flow cytometry analysis (reference value: 0.61 %); assay type: functional
SK-MEL-5 [8] = assay: Induction of cell cycle arrest in human SK-MEL-5 cells assessed as cell aggregates at 10 uM incubated for 24 hrs by FACSCalibur flow cytometry analysis (reference value: 1.79%); assay type: functional
SK-MEL-5 [9] = assay: Induction of apoptosis in human SK-MEL-5 cells assessed as caspase 3 activation incubated for 24 hrs by Western blotting analysis; assay type: functional, cell-based
SK-MEL-5 [10] = assay: Induction of cell cycle arrest in human SK-MEL-5 cells assessed as cell debris at 10 uM incubated for 24 hrs by FACSCalibur flow cytometry analysis (reference value: 1.38%); assay type: functional
SK-MEL-5 [11] = assay: Induction of cell cycle arrest in human SK-MEL-5 cells assessed as accumulation of diploid cells at G1 phase at 10 uM incubated for 24 hrs by FACSCalibur flow cytometry analysis (reference value: 69.23%); assay type: functional
SK-MEL-5 [12] = assay: Induction of ROS generation in human SK-MEL-5 cells assessed as increase in intracellular ROS level incubated for 1 hrs by H2DCFDA probe based fluorometry analysis relative to control; assay type: functional
SK-MEL-5 [13] = assay: Induction of apoptosis in human SK-MEL-5 cells assessed as necrotic cells at 10 uM incubated for 24 hrs by Annexin-V/FITC and PI staining based flow cytometry analysis (reference value: 1.56 %); assay type: functional
SK-MEL-5 [14] = assay: Induction of cell cycle arrest in human SK-MEL-5 cells assessed as accumulation of diploid cells at S phase at 10 uM incubated for 24 hrs by FACSCalibur flow cytometry analysis (reference value: 17.55%); assay type: functional

Structure (SMILES)	IC50 (RXF 393)	IC50 [1]	Activity (SK-MEL-5 [2])	IC50 (HCC 2998)	Activity (SK-MEL-5 [3])	IC50 (SK-MEL-5 [4])	Activity (SK-MEL-5 [5])	Activity (SK-MEL-5 [6])	Activity (SK-MEL-5 [7])	Activity (SK-MEL-5 [8])	Activity (SK-MEL-5 [9])	Activity (SK-MEL-5 [10])	Activity (SK-MEL-5 [11])	Activity (SK-MEL-5 [12])	Activity (SK-MEL-5 [13])	Activity (SK-MEL-5 [14])
CN(C)c1ccc(/C=N/Nc2nc(Nc3ccccc3)nc(Nc3ccc(S(N)(=O)=O)cc3)n2)cc1	7.21 µM	39.8 µM														
NS(=O)(=O)c1ccc(Nc2nc(N/N=C/c3ccccn3)nc(Nc3ccccc3)n2)cc1	3.11 µM	45.6 µM	Active	1930 nM	24.97%	8.33 µM	8.81%	37.24%	4.28%	1.85%	Active	1.42%	58.78%	23%	7.99%	32.41%
